Measurements: publication PMC9628888, “Engineering of Sulfolobus acidocaldarius for Hemicellulosic Biomass Utilization” (Journal of Microbiology and Biotechnology, 2022)

Molecular target: T1, β-xylosidase (SSO3032) (Saccharolobus solfataricus, UniProt Q97UI4)
T1 construct: full gene cloned in pSVAmalFX-Nt6H (His6 tag)
Assay: colorimetric pNP release at […] nm
Assay type: biochemical
Conditions: 1 mM pNPX, 50 mM sodium acetate pH 6.0, 90 °C, 10 min

T1 sequence (Q97UI4 entry or part of it): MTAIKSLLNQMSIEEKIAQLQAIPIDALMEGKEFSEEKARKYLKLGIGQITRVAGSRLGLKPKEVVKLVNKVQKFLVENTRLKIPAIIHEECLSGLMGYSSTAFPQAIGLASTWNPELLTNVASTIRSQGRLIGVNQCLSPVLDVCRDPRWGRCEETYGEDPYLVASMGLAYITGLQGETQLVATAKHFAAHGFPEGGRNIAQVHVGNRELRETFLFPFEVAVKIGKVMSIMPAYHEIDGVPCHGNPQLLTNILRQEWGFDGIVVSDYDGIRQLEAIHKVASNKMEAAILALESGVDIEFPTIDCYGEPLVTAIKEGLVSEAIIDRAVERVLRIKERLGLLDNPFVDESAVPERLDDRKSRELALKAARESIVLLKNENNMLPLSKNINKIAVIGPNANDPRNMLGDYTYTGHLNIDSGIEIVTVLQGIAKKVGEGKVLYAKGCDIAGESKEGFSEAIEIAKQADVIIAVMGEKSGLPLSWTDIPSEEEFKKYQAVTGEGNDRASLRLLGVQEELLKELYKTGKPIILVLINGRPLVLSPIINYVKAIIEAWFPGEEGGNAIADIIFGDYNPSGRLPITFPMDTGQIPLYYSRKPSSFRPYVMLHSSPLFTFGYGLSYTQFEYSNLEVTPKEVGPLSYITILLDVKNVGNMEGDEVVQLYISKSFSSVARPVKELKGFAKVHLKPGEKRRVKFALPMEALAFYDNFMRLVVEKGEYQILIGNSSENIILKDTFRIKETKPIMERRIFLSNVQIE

`O=[N+]([O-])c1ccc(O[C@@H]2OC[C@@H](O)[C@H](O)[C@H]2O)cc1` [pNPX] was tested, and the “colorimetric pNP release at 420 nm” value was “performed with 4-nitrophenol-β-D-xylopyranoside (pNPX) as a substrate”.
